Patent US20130253069A1, “Use of DMSO for Destroying Adipocytes and Eliminating Cellulite and Adiposities” (priority 2010, published 2013)
Like-named read-outs stand apart in the source and are kept apart here.

Columns and labels:
fat cells = conditions: cited from earlier work
[1] = cited from earlier work
[2] = tested on: cyclic AMP phosphodiesterase; conditions: present in fat cells; high concentrations; cited from earlier work
serum cholesterol = conditions: cats, given with water along with a cholesterol-based diet; cited from earlier work
[3] = tested on: cellulite and adiposities; assay: Study of efficacy of topically delivered DMSO for eliminating cellulite and adiposities; format: in vivo, human
Source text: This study was exclusively designed to determine the efficacy and safety of DMSO delivered in several manners and in different concentrations for eliminating cellulite and adiposities.
This is a multicentric, prospective, longitudinal study, where clinical and instrumental parameters are used to detect results regarding different formulations and application forms performed. It is not possible to perform a double-blind study with placebo due to the strong odor of DMSO present in formulations, easy to identify.
A group of 145 subjects, with ages ranging from 18 to 55 years (average 36.5 y.o.), having cellulite for at least 2 years, were recruited from April, 2008 until July, 2008.
Inclusion criteria were: presence of cellulite (stages 1, 2, 3, and 4) in subjects of groups A and B; accentuated abdominal fat in the subjects of the group C; age ranging from 18 to 55 years old and interest in entering the study.
Exclusion criteria were: after liposculpture, other treatments anti-cellulite ongoing or 30 days before entering the study, pregnant and nursing women, cancer, people with hormonal alterations, endocrinological disorders, and people under hormonal or endocrinal treatment.
(§1) 145 subjects were randomized in 3 groups and received 3 different treatments according to established method. Group A entered 29 female subjects having Dermal Paniculopathy (cellulite) stages 1 and 2, Group B entered 58 female subjects with Dermal Paniculopathy (cellulite) stages 3 and 4, and Group C entered 58 subjects, 35 female and 23 male, all having pronounced abdominal fat.
(§2) The three products were formulated as follows: group A consisted in an aqueous solution of DMSO at 20% and aerosol spray to 5%, group B consisted in an aqueous solution of DMSO at 50% and aerosol spray 5%, and group C consisted in an aqueous solution of DMSO at 90% and aerosol spray at 5%.
The aqueous solution was used in the massage applied before the delivery of spray. Each massage session lasted 45 minutes in average.
After massage, the spray was applied at 30 cm (11.80 in) of distance for approximately 5 seconds in each site.
After the procedure as above, a drainage massage was applied for 20 minutes.
In total, each session last 1 hour and 30 minutes in average.
Two sessions were applied per week during 5 weeks.
All subjects were analyzed at the end of each session, and especially after the 10 sessions.
Evaluation methods were: digital photographs (before and after), clinical observation, measurement of thigh circumference, pinching test (for pain), measurement of fat with plicometer/adipometer, measurement of abdominal circumference, measurement of hips and waist circumference, and questionnaire with questions about swelling, pain and heaviness in the legs, cellulite appearance, weight, general efficacy of the product, tolerability, satisfaction with the treatment, sensation of wellbeing, increased diuresis, urine color, among others.

adipocytes (fat cells) = assay: Adipocytes destroyed per application of DMSO; format: in vivo
[4] = cited from earlier work; remark: listed apart in the source
[5] = set-up: species or system human; conditions: in vivo
Source text: as §1, §2
The aqueous solution was used in the massage applied before the delivery of spray. Each massage session lasted 45 minutes in average. […]
Adverse reactions commonly reported in a period of 2 hours right after the application were: nausea (27 subjects or 19%), headache (15 subjects or 11%), feeling of burn in application site (11 subjects or 8%), itch and redness in application site (14 subjects or 10%), hypotension (7 subjects or 5%), odor and taste similar to garlic or corn (136 subjects or 98%), dry mouth (32 subjects or 23%), increased diuresis (98 subjects or 70%), strong urine color and odor (68 subjects or 49%). These reactions were evaluated as light and transitory.

[6] = cited from earlier work; remark: listed apart in the source
[7] = topical DMSO 80%, gram/kg per day, 60 subjects, 14 days
[8] = % of subjects in this category after 10 topical sessions
[9] = % of subjects in this category after 10 topical sessions, regular diet and physical activities kept
[10] = reports among subjects with accentuated venous insufficiency and varicose veins (30% of 139)
[11] = humans, dermal delivery of a DMSO solution at 70%
[12] = humans, plasma, dermal delivery of a DMSO solution at 70%
[13] = humans, after DMSO administration

Compound: CSC [dimethyl sulfide]
- accumulation of cyclic AMP due to norepinephrine (fat cells): did not cause any changes

Compound: C[S+](C)[O-] [DMSO, Dimethyl Sulfoxide]
- time at which increase of cyclic AMP due to DMSO was detected (fat cells; after addition of the lipolytic agents, 1.10 M DMSO): 40 s
- increase of lipolysis due to glucagon, norepinephrine or theophylline (fat cells): potentialized
- lipolysis (fat cells): increased
- oxidation of glucose stimulated by insulin (fat cells): decreased
- eosinophilia ([1]; DMSO at 80% gram/kilogram per day topically for 14 days and 90 days): can cause eosinophilia
- ocular adverse effect ([1]; subjects receiving topical solution): No ocular adverse effect was observed
- dizziness [1, 7]: 18%
- dry nasal passages, dry or painful throat and cough [1, 7]: Less than 5%
- headache [1, 7]: 42%
- sedation [1, 7]: 52%
- duration of odor similar to garlic in the body ([1]; topical application): up to 72 hours
- activity of cyclic AMP phosphodiesterase, soluble and particulate [2]: inhibited
- prevention of expected increase of serum cholesterol (serum cholesterol): 50%
- General satisfaction after all 10 sessions: Bad ([3]; % of subjects in this category): 0%
- General satisfaction after all 10 sessions: Excellent ([3]; % of subjects in this category): 72%
- General satisfaction after all 10 sessions: Good ([3]; % of subjects in this category): 6%
- General satisfaction after all 10 sessions: Great ([3]; % of subjects in this category): 22%
- General satisfaction after all 10 sessions: Regular ([3]; % of subjects in this category): 0%
- Abdominal circumference reduction: 3.1-5 cm [3, 8]: 39%
- Abdominal circumference reduction: 5.1 cm and more [3, 8]: 29%
- Abdominal circumference reduction: Up to 3 cm [3, 8]: 32%
- Diuresis improvement: Bad [3, 8]: 0%
- Diuresis improvement: Excellent [3, 8]: 28%
- Diuresis improvement: Good [3, 8]: 25%
- Diuresis improvement: Great [3, 8]: 39%
- Diuresis improvement: Regular [3, 8]: 8%
- General efficacy: Bad [3, 8]: 0%
- General efficacy: Excellent [3, 8]: 74%
- General efficacy: Good [3, 8]: 9%
- General efficacy: Great [3, 8]: 17%
- General efficacy: Regular [3, 8]: 0%
- General feeling of improvement: Bad [3, 8]: 0%
- General feeling of improvement: Excellent [3, 8]: 78%
- General feeling of improvement: Good [3, 8]: 10%
- General feeling of improvement: Great [3, 8]: 12%
- General feeling of improvement: Regular [3, 8]: 0%
- Hip circumference reduction: 2.6-4.5 cm [3, 8]: 43%
- Hip circumference reduction: 4.5 cm and more [3, 8]: 26%
- Hip circumference reduction: Up to 2.5 cm [3, 8]: 31%
- Improvement from orange peel skin appearance: Bad [3, 8]: 0%
- Improvement from orange peel skin appearance: Excellent [3, 8]: 76%
- Improvement from orange peel skin appearance: Good [3, 8]: 11%
- Improvement from orange peel skin appearance: Great [3, 8]: 13%
- Improvement from orange peel skin appearance: Regular [3, 8]: 0%
- Mood improvement: Bad [3, 8]: 0%
- Mood improvement: Excellent [3, 8]: 26%
- Mood improvement: Good [3, 8]: 33%
- Mood improvement: Great [3, 8]: 41%
- Mood improvement: Regular [3, 8]: 0%
- Reduced pain in cellulite sites: Bad [3, 8]: 0%
- Reduced pain in cellulite sites: Excellent [3, 8]: 21%
- Reduced pain in cellulite sites: Good [3, 8]: 39%
- Reduced pain in cellulite sites: Great [3, 8]: 27%
- Reduced pain in cellulite sites: Regular [3, 8]: 13%
- Thigh circumference reduction: 2.1-4 cm [3, 8]: 48%
- Thigh circumference reduction: 4.1 cm and more [3, 8]: 24%
- Thigh circumference reduction: Up to 2 cm [3, 8]: 28%
- well-being: Bad [3, 8]: 5%
- well-being: Excellent [3, 8]: 20%
- well-being: Good [3, 8]: 28%
- well-being: Great [3, 8]: 44%
- well-being: Regular [3, 8]: 3%
- Weight loss: 2.1-3 kg [3, 9]: 44%
- Weight loss: 3 kg and more [3, 9]: 25%
- Weight loss: Up to 2 kg [3, 9]: 31%
- Decreased and whitened macrovaricose veins [3, 10]: 39%
- Decreased pain in legs, arms and hands [3, 10]: 62%
- Decreased swelling and heaviness in the legs [3, 10]: 73%
- Decreased tingling legs and arms [3, 10]: 55%
- amount of adipocytes destroyed per session/application (adipocytes (fat cells)): 50,000-500,000 cells
- dose excreted in the air as dimethyl sulfide ([4]; estimate of Kolb et al. (1965)): approximately 3 % of the dose
- dose recovered in urine ([4]; humans, 1 g/kg dermally, fluid form and gel form, 10 subjects each): less than 10 % of the dose
- Urinary excretion of DMSO ([4]; humans, dermal administration): 30-68 % of the dose
- Total urinary excretion of DMSO (average) [4, 11]: 13 % dose
- dose accounted for by urinary excretion of DMSO and DMSO2 (average) [4, 11]: 30.8 % dose
- duration of urinary excretion of DMSO [4, 11]: 48 h
- time of maximum plasmatic levels of DMSO [4, 11]: 4 to 8 h
- time of peak of plasmatic levels ([4]; humans, dermally administered): 4 to 8 h
- Urinary excretion of DMSO ([4]; humans, oral administration): approximately 13 % of the dose
- time to plasma peak ([4]; humans, orally administered): ≤ 4 h
- half-life [4, 12]: 11 to 14 h
- time after which DMSO could not be detected any longer [4, 12]: 36 to 48 h
- time after which serum levels of DMSO were undetectable ([4]; humans): 120 h
- share of excretion via air ([4]; in vivo): less than 3%
- Discontinuation of treatment due to adverse reactions [5]: No patient discontinued the treatment due to adverse reactions
- teratogenic effects ([6]; animals exposed): Teratogenic effects were observed
- ocular findings in animals ([6]; studies in animals): changes to lenses

Compound: CS(C)(=O)=O [DMSO2, Dimethyl sulphona]
- accumulation of cyclic AMP due to norepinephrine (fat cells): did not cause any changes
- time DMSO2 persisted in plasma [4, 13]: approximately 400 hours
- time at which DMSO2 appeared in plasma [4, 13]: 48 h
- Excretion of DMSO2 ([4]; humans, dermal administration of DMSO): 21-23%
- duration of urinary excretion of DMSO2 [4, 11]: 456 h
- plasmatic levels of DMSO2 after 312 hours [4, 11]: low but still detectable
- time at which urinary excretion of DMSO2 became more significant [4, 11]: approximately 8 hours
- time of maximum plasmatic levels of DMSO2 [4, 11]: 60 to 70 h
- total average amount of DMSO2 excreted in urine [4, 11]: 17.8 % dose of DMSO
- Excretion of DMSO2 ([4]; humans, oral administration of DMSO): 5-10%
